Measurements taken from US20070269503A1, “Combinations of HMG CoA reductase inhibitors and negatively charged phospholipids and uses thereof” (priority 2006, published 2007).
Like-named read-outs stand apart in the source and are kept apart here.

Experiments:
[1] = tested on: HepG2 cells; settings: cited from earlier work
[2] = normocholesterolemic male Sprague-Dawley rats; 5.5% by weight of rat chow, approximately 4 g/Kg body weight; cited from earlier work
[3] = oral PI combined with an intestinal absorption enhancer (IAE); cited from earlier work
[4] = Oral PI, plasma HDL cholesterol and apoA-I; format: in vivo; settings: conventional formulations, about 5.6 g/day
Source text: The efficacy of orally administered phosphatidyl-inositol(PI) for raising plasma HDL cholesterol and apoA-I levels can be improved considerably (e.g. 2- to 8-fold) by combining PI with an intestinal absorption enhancer (IAE) (U.S. patent application Ser. No. 60/684212, herein incorporated by reference).

Q: Which “inhibition of cholesterol synthesis” value ([1]; concentrations between 0.01 to 10 μM) does the source give for `CC(C)c1c(C(=O)Nc2ccccc2)c(-c2ccccc2)c(-c2ccc(F)cc2)n1CC[C@@H](O)C[C@@H](O)CC(=O)O` [atorvastatin] here?
A: 45-65%

Q: What does the source list for Phosphatidic acid [PA]?
A: decrease in plasma triglycerides [2]: about 40%; increase in HDL cholesterol [2]: about 2 fold

Q: Which results are given for phosphatidylinositol [PI]?
A: improvement of efficacy for raising plasma HDL cholesterol and apoA-I levels [3]: 2- to 8 fold; inhibition of cholesterol synthesis ([1]; 11.7 μM): 50%; increase in apoA-I [4]: ~10%; increase in plasma HDL cholesterol [4]: ~20%
